Measured values taken from patent US9144239B2, “Macrocyclic picolinamides as fungicides” (DOW AGROSCIENCES LLC, priority 2012, dated 2015).
Where two headings read alike, the source gives them in different places.

Experiments:
Venturia inaequalis = test: Fungicidal activity: apple scab (VENTIN); format: in vivo; conditions: 24 h, 1 Day Protectant, read-out: Disease Control VENTIN 1 DP
Protocol: Technical grades of materials were dissolved in acetone, which were then mixed with nine volumes of water containing 110 ppm Triton X-100. The fungicide solutions were applied onto wheat seedlings using an automated booth sprayer to run-off. All sprayed plants were allowed to air dry prior to further handling. Wheat plants (variety Yuma) were grown from seed in a greenhouse in 50% mineral soil/50% soil-less Metro mix until the first leaf was fully emerged, with 7-10 seedlings per pot. These plants were inoculated with an aqueous spore suspension of Septoria tritici either prior to or after fungicide treatments. After inoculation the plants were kept in 100% relative humidity (one day in a dark dew chamber followed by two to three days in a lighted dew chamber at 20° C.) to permit spores to germinate and infect the leaf. The plants were then transferred to a greenhouse set at 20° C. for disease to develop. When disease symptoms were fully expressed on the 1st leaves of untreated plants, infection levels were assessed on a scale of 0 to 100 percent disease severity. Percent disease control was calculated using the ratio of disease severity on treated plants relative to untreated plants. Evaluation of Fungicidal Activity: Apple Scab (Venturia inaequalis; Bayer Code […]) Apple seedlings (variety McIntosh) were grown in soil-less Metro mix, with one plant per pot. Seedlings with two expanding young leaves at the top (older leaves at bottom of the plants were trimmed) were used in the test. Plants were inoculated with a spore suspension of Venturia inaequalis 24 hr after fungicide treatment and kept in a 22° C. dew chamber with 100% RH for 48 hr, and then moved to a greenhouse set at 20° C. for disease to develop. Fungicide formulation, application and disease assessment on the sprayed leaves followed the procedures as described in the Example A.

[1] = system: Puccinia triticina; synonym: Puccinia recondita f. sp. tritici; test: Fungicidal activity: wheat brown rust (PUCCRT), wheat seedlings; format: in vivo
How it was run: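 Wheat (Yuma) seedlings at first-leaf stage, inoculated with Puccinia triticina spores before or after treatment, held overnight in dark dew room at 22° C, 100% RH, then greenhouse at 24° C. Acetone solutions diluted with nine volumes water containing 110 ppm Triton X-100, sprayed to run-off. Percent disease control derived from severity (0–100%) relative to untreated plants.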

[2] = system: Mycosphaerella graminicola; anamorph: Septoria tritici; test: Fungicidal activity: leaf blotch of wheat (SEPTTR), wheat seedlings; format: in vivo; conditions: Zymoseptoria tritici
How it was run: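 Percent control derives from disease severity on treated versus untreated first leaves, rated 0–100% when symptoms were fully expressed on untreated plants. Yuma seedlings were inoculated with S. tritici spores either before or after spraying to run-off. The spray was acetone solution diluted 1:9 in water with 110 ppm Triton X-100. Infection took place in 100% RH dew chambers, then a 20 °C greenhouse.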

Uncinula necator = test: Fungicidal activity: grape powdery mildew (UNCINE); format: in vivo; conditions: Erysiphe necator, 24 h, 1 Day Protectant, read-out: Disease Control UNCINE 1 DP
Protocol: Technical grades of materials were dissolved in acetone, which were then mixed with nine volumes of water containing 110 ppm Triton X-100. The fungicide solutions were applied onto wheat seedlings using an automated booth sprayer to run-off. All sprayed plants were allowed to air dry prior to further handling. Wheat plants (variety Yuma) were grown from seed in a greenhouse in 50% mineral soil/50% soil-less Metro mix until the first leaf was fully emerged, with 7-10 seedlings per pot. These plants were inoculated with an aqueous spore suspension of Septoria tritici either prior to or after fungicide treatments. After inoculation the plants were kept in 100% relative humidity (one day in a dark dew chamber followed by two to three days in a lighted dew chamber at 20° C.) to permit spores to germinate and infect the leaf. The plants were then transferred to a greenhouse set at 20° C. for disease to develop. When disease symptoms were fully expressed on the 1st leaves of untreated plants, infection levels were assessed on a scale of 0 to 100 percent disease severity. Percent disease control was calculated using the ratio of disease severity on treated plants relative to untreated plants. Evaluation of Fungicidal Activity: Grape Powdery Mildew (Uncinula necator; Bayer Code […]) Grape seedlings (variety Carignane) were grown in soil-less Metro mix, with one plant per pot, and used in the test when approximately one month old. Plants were inoculated 24 hr after fungicide treatment by shaking spores from infected leaves over test plants. Plants were maintained in a greenhouse set at 20° C. until disease was fully developed. Fungicide formulation, application and disease assessment on the sprayed leaves followed the procedures as described in the Example A.

[3] = system: Puccinia triticina; synonym: Puccinia recondita f. sp. tritici; test: Fungicide mobility (dropline mobility test): wheat brown rust (PUCCRT); format: in vivo; conditions: 1 ug/leaf
Protocol: Evaluation of Fungicide Mobility: Wheat Brown Rust (Puccinia triticina; Synonym: Puccinia recondita f. sp. tritici; Bayer Code PUCCRT) “Yuma” wheat seedlings were used in the test. One mg of compound was dissolved in 9 μl of EC blank (emulsifiable concentrate) and 500 μl of acetone. Acetone was then evaporated overnight by leaving the vial open in a fume hood. Two milliliters of water containing 110 ppm Triton X-100 was added to each vial to prepare application solutions. A 2 μl drop of formulated material was applied to a marked line on the adaxial surface 5 cm from the leaf tip of the primary leaves. The primary leaves were kept in a horizontal position. Each treatment had 6 replicates. Plants were inoculated with PUCCRT 1-day after (1DPM) or 3-day prior to (3DCM) compound applications. When rust was fully expressed on primary leaves on control plants, the zone of treated leaves that was disease-free in the acropetal direction was measured with a ruler and converted to percent of the distance from marked line to leaf tip.

[4] = system: Magnaporthe grisea; anamorph: Pyricularia oryzae; test: whole plant or invertebrate; format: in vivo; conditions: 24 h, read-out: Disease Control PYRIOR 1 DP
[5] = 24 h, 100 ppm, 1 Day Protectant, wheat, read-out: Disease Control PUCCRT 1DP
[6] = 24 h, 100 ppm, 1 Day Protectant, wheat, read-out: Disease Control SEPTTR 1DP
[7] = 72 h, 100 ppm, 3 Day Curative, wheat, read-out: Disease Control SEPTTR 3DC
[8] = 72 h, 100 ppm, 3 Day Curative, wheat, read-out: Disease Control PUCCRT 3DC
[9] = 24 h, 1 Day Protectant Mobility, read-out: Dropline Mobility Test PUCCRT 1DPM
[10] = 72 h, 3 Day Curative Mobility, read-out: Dropline Mobility Test PUCCRT 3DCM

Row | SMILES | pest or weed control at 100 ppm (Venturia inaequalis) [%] | pest or weed control at 100 ppm [1, 5] [%] | pest or weed control at 100 ppm [2, 6] [%] | pest or weed control at 100 ppm [2, 7] [%] | pest or weed control at 100 ppm (Uncinula necator) [%] | pest or weed control at 100 ppm [1, 8] [%] | pest or weed control at 1 µg/leaf [3, 9] [%] | pest or weed control at 1 µg/leaf [3, 10] [%] | pest or weed control at 100 ppm [4] [%] | melting point [°C] | pest or weed control at 100 ppm ([1]; 24 h, read-out: Disease Control PUCCRT 1DP) [%] | pest or weed control at 100 ppm ([1]; 72 h, read-out: Disease Control PUCCRT 3DC) [%] | pest or weed control at 100 ppm ([2]; 24 h, read-out: Disease Control SEPTTR 1DP) [%] | pest or weed control at 100 ppm ([2]; 72 h, read-out: Disease Control SEPTTR 3DC) [%]
1 | COc1ccnc(C(=O)N[C@H]2COC[C@H](OCc3ccccc3)[C@@H](OCc3ccccc3)COC2=O)c1OCOC(=O)C(C)C [Compound 6] | 0 to 80 | 80 to 100 | 0 to 80 | 0 to 80 | 0 to 80 |  |  |  |  |  |  |  |  | 
2 | CCCCO[C@H]1[C@H](C)OC(=O)[C@@H](NC(=O)c2nccc(OC)c2OCOC(C)=O)COC[C@@H]1OCc1ccccc1 [Compound 34] | 80 to 100 | 80 to 100 | 80 to 100 | 80 to 100 | 80 to 100 | 80 to 100 | 0 to 80 | 80 to 100 |  |  |  |  |  | 
3 | CCCCO[C@H]1COC[C@H](NC(=O)c2nccc(OC)c2OCOC(C)=O)C(=O)O[C@@H](C)[C@@H]1OCc1ccccc1 [Compound 35] | 0 to 80 | 80 to 100 | 80 to 100 | 80 to 100 | 0 to 80 | 80 to 100 |  |  |  |  |  |  |  | 
4 | CCCCO[C@H]1COC[C@H](NC(=O)c2nccc(OC)c2OCOC(C)=O)C(=O)O[C@@H](C)[C@@H]1OCCC [Compound 45] | 0 to 80 | 80 to 100 | 80 to 100 | 80 to 100 | 80 to 100 | 80 to 100 |  |  |  |  |  |  |  | 
5 | CCCCO[C@H]1COC[C@H](NC(=O)c2nccc(OC)c2OCOC(C)=O)C(=O)O[C@@H](C)[C@@H]1OC(=O)C(C)C [Compound 47] | 80 to 100 | 80 to 100 | 80 to 100 | 80 to 100 | 0 to 80 | 80 to 100 |  |  | 80 to 100 |  |  |  |  | 
6 | COc1ccnc(C(=O)N[C@H]2COC[C@H](O)[C@@H](OCC(C)C)[C@H](C)OC2=O)c1O [Compound 72, 3-hydroxy-N-((3S,7S,8R,9S)-7-hydroxy-8-isobutoxy-9-methyl-2-oxo-1,5-dioxonan-3-yl)-4-methoxypicolinamide] |  | 0 to 80 | 0 to 80 | 0 to 80 |  | 0 to 80 | 0 to 80 | 0 to 80 |  | 121 to 124 |  |  |  | 
7 | COc1ccnc(C(=O)N[C@H]2COC[C@H](OC3CCCCC3)[C@@H](OCC(C)C)[C@H](C)OC2=O)c1O [Compound 73] |  | 80 to 100 | 80 to 100 | 80 to 100 |  | 80 to 100 | 0 to 80 | 0 to 80 |  | 122 to 125 |  |  |  | 
8 | COc1ccnc(C(=O)N[C@H]2COC[C@H](OCC(C)C)[C@@H](Oc3ccccc3)[C@H](C)OC2=O)c1O [Compound 82, 3-hydroxy-N-((3S,7S,8S,9S)-7-isobutoxy-9-methyl-2-oxo-8-phenoxy-1,5-dioxonan-3-yl)-4-methoxypicolinamide] |  |  |  |  |  |  | 80 to 100 | 0 to 80 |  | 117 to 119 | 80 to 100 | 80 to 100 | 80 to 100 | 0 to 80
9 | COc1ccnc(C(=O)N[C@H]2COC[C@H](Oc3ccccc3)[C@@H](OCC(C)C)[C@H](C)OC2=O)c1O [Compound 83] |  | 80 to 100 | 80 to 100 | 80 to 100 |  | 80 to 100 | 80 to 100 | 0 to 80 |  | 112 to 113 |  |  |  | 
